The source of these data is US3947466A, “Intermediates and process for the production of certain triazolobenzodiazepines” (priority 1974, dated 1976).

Each structure is given as a SMILES string. Entries after “also recorded” stand apart in the source; their conditions may differ. Where a name gives a salt, the structure may show the parent alone. Read-outs that look alike come from different tables or passages of the source. Where only a bound is given, the exact number is not on record here.

For one data set, the system named is yohimbine hydrochloride. The data set is described as follows: in vivo. To be noted: for YO (Yohimbine test): TABLE V; for ED50: Mus musculus, 2 h, read-out: ED50, yohimbine potentiation (causes 50% of the mice to die). The procedure:
(§1) Ten male CF mice, 18-22 g., were injected with the anti-depressant and 30 minutes later with 30 […] hydrochloride (YCl) in saline solution. After two hours, the LD50 were determined.

Data set [1] in a line: Chimney test: ability of mice to back up and out of a vertical glass cylinder within 30 seconds. Type of data set: in vivo. The note with it: Mus musculus, ip. The text has this:
The test determines the ability of mice to back up and out of a vertical glass cylinder within 30 seconds. At the effective dosage, 50% of the mice failed doing it.

In data set [2] the test system is apomorphine hydrochloride. To be noted: TABLE V.
Data set [3] relates to oxotremorine. The data set is described as follows: animal or person. To be noted: for Oxo (Oxotremorine test): TABLE V; for ED50: Mus musculus, ip, 0.5 h, read-out: ED50, oxotremorine hypothermia antagonism (temperature at least 4° C. higher than control mice). Type of data set: in vivo, mice (male, Strain CF=Carworth Farms). As to the method: Hypothermic tests with oxotremorine: [1-(4-pyrrolidino-2-butynyl)-2-pyrrolidinone].
The present compounds were tested as follows. […] The lowering of the body temperature was measured rectally with an electronic thermometer, before and 30 minutes after drug administration. After the drug administration the mice were kept at 19° C. in cages. A 4° difference between the control mice (oxotremorine alone) and the treated mice (oxotremorine and test compound) was used to indicate the antagonistic action of the test compound.

Another data set has as its system nicotine salicylate. As to the kind of experiment: animal or person. Type of data set: in vivo, mice. The note with it: for ED50: Mus musculus, ip. The procedure:
Nicotine antagonism test: Mice in a group of 6 are injected with the test compound, 8-chloro-1-[(dimethylamino)methyl]-6-phenyl-4H-s-triazolo[4,3-a][1,4]benzodiazepine. Thirty minutes later the mice, including control (untreated) mice, are injected with nicotine salicylate (2 mg./kg.). The control mice show overstimulation, i.e., (1) running convulsions (2) tonic extensor fits; followed by (3) death.

A further data set can be described thus: LD50 values in mice. To be noted: mouse, in vivo.
A short description of data set [4]: Pedestal test: tranquilized mice stay on the pedestal for more than 1 minute. It is filed as in vivo. The note with it: Mus musculus, ip. As to the method:
Pedestal Test: The untreated mouse leaves the pedestal in less than a minute to climb back to the floor of the standard mouse box. Tranquilized mice will stay on the pedestal for more than 1 minute. The ED50 (intraperitoneal administration) was 0.8 mg./kg.

The nature of data set [5]: Dish test: mice remaining in the dish for more than 3 minutes (tranquilization). It is filed as in vivo. To be noted: Mus musculus, ip. The procedure:
Dish test: Mice in Petri dishes (10 cm. diameter, 5 cm. high, partially embedded in wood shavings), climb out in a very short time, when not treated. Mice remaining in the dish for more than 3 minutes indicates tranquilization.

For data set [6], the system named is apomorphine hydrochloride. The data set is described as follows: animal or person. The note with it: Mus musculus, ip, 0.5 h, read-out: ED50, potentiation of apomorphine gnawing.
For a further data set, the system named is strychnine sulfate. As to the kind of experiment: animal or person. Type of data set: in vivo, mice. The procedure:
The test consists in orally administering into groups of 6 mice the test compound, and 30 minutes later 3 mg./kg. strychnine sulfate intraperitoneally. The survivors after 4 hours reflect the activity of the compound as a muscle relaxant and antispasmodic.

Data set [7] concerns oxotremorine. To be noted: cited from earlier work; for effect on oxotremorine-induced temperature decrease / hypothermic response / hypothermic response: mice, background statement.
Another data set can be described thus: in vivo. The note with it: mouse, in vivo, ip. As to the method:
as §1

[8] abbreviates: mice, route not given, TABLE IV.

Turning to `CN(C)Cc1nnc2n1-c1ccccc1C(c1ccccc1Cl)=NC2` [1-[(dimethylamino)methyl]-6-(o-chlorophenyl)-4H-s-triazolo-[4,3-a][1,4]benzodiazepine], the “YO (Yohimbine test)” value with yohimbine hydrochloride is on record as more than 30. Further, the ED50 in data set [1] (read-out: ED50 Ch) worked out at 0.35 mg/kg; in the data set with nicotine salicylate (read-out: ED50 Ni), 0.15 mg/kg; in data set [4] (read-out: ED50 P), 22 mg/kg; in data set [5] (read-out: ED50 D), 0.8 mg/kg. Further, the “Ap (Apomorphine test)” value in data set [2] is given as more than 30. In addition, the “Oxo (Oxotremorine test)” value with oxotremorine [3] is reported as more than 30. In the data set “LD50 values in mice” (TABLE V), the LD50 is more than 100 mg/kg.
On to `NCc1nnc2n1-c1ccc(Cl)cc1C(c1ccccc1)=NC2` [8-Chloro-1-(aminomethyl)-6-phenyl-4H-s-triazolo[4,3-a][1,4]benzodiazepine], for which the “YO (Yohimbine test)” value in the data set with yohimbine hydrochloride was 35.4. The “Ap (Apomorphine test)” value in data set [2] was 2.6. The “Oxo (Oxotremorine test)” value in the data set on oxotremorine [3] was 29.7. In the data set “LD50 values in mice” (TABLE V), this molecule displayed a median lethal dose (LD50) of more than 100 mg/kg.
Regarding `CCN(CC)Cc1nnc2n1-c1ccc(Cl)cc1C(c1ccccc1Cl)=NC2` [8-Chloro-1-[(diethylamino)methyl]-6-(o-chlorophenyl)-4H-s-triazolo[4,3-a][1,4]benzodiazepine], the ED50 came out at 0.63 mg/kg in data set [1] (read-out: ED50 Ch), 0.08 mg/kg in the data set on nicotine salicylate (read-out: ED50 Ni), 0.4 mg/kg in data set [4] (read-out: ED50 P) and 0.11 mg/kg in [5] (read-out: ED50 D).
For the molecule `CCN(CC)Cc1nnc2n1-c1ccc(Cl)cc1C(c1ccccc1)=NC2` [8-Chloro-1-[(diethylamino)methyl]-6-phenyl-4H-s-triazolo[4,3-a][1,4]benzodiazepine], the ED50 in the data set with yohimbine hydrochloride came out at 42 mg/kg; in data set [6], 14.9 mg/kg; with oxotremorine [3] (mice, oxotremorine 1 mg. i.p., 30 minutes, second TABLE I), 50 mg/kg. Further, the median lethal dose (LD50) in “LD50 values in mice” (setting [8]) was more than 100 mg/kg.
For `CN(C)Cc1nnc2n1-c1ccc(Cl)cc1C(c1ccccc1Cl)=NC2` [8-Chloro-1-[(dimethylamino)methyl]-6-(o-chlorophenyl)-4H-s-triazolo[4,3-a][1,4]benzodiazepine], the “YO (Yohimbine test)” value with yohimbine hydrochloride was more than 30. Besides, the ED50 in [1] (read-out: ED50 Ch) was 0.2 mg/kg; in the data set with nicotine salicylate (read-out: ED50 Ni) it was 0.63 mg/kg; in data set [4] (read-out: ED50 P), 0.36 mg/kg; in [5] (read-out: ED50 D) it was 0.36 mg/kg. Also, the “Ap (Apomorphine test)” value in data set [2] is reported as 17.8. In addition, the “Oxo (Oxotremorine test)” value with oxotremorine [3] is given as more than 30. The molecule further came in with an LD50 in “LD50 values in mice” (TABLE V) of more than 100 mg/kg.
As for `CN(C)Cc1nnc2n1-c1ccc(Cl)cc1C(c1ccccc1)=NC2` [8-Chloro-1-[(dimethylamino)methyl]-6-phenyl-4H-s-triazolo[4,3-a][1,4]benzodiazepine], the ED50 in the data set on yohimbine hydrochloride came out at 12.5 mg/kg; in data set [1] (read-out: effective intraperitoneal dosage for 50% of mice (ED50), chimney test), 2.3 mg/kg; in data set [6], 5.3 mg/kg; in the data set on strychnine sulfate (Mus musculus, po, 4 h, read-out: effective dosage ED50, antagonism to strychnine), 50 mg/kg; in the data set with oxotremorine [3] it was 5.3 mg/kg; with nicotine salicylate (read-out: dosage protecting 50% of the animals against death (nicotine antagonism)), 0.11 mg/kg. For the same molecule, the ED50 turned out to be 0.8 mg/kg in [4] (read-out: ED50, pedestal test) and 0.28 mg/kg in data set [5] (read-out: ED50, dish test). Moreover, the LD50 in the data set “LD50 values in mice” (setting [8]) is 476 mg/kg.
For `CN(C)CCC=C1c2ccccc2COc2ccccc21` [Doxepine, reference compound], the values for the ED50 (with yohimbine hydrochloride; in data set [6]; with oxotremorine [3]) were 17.7 mg/kg, 17.7 mg/kg and 14.9 mg/kg, respectively. In the data set on oxotremorine [7], the “effect on oxotremorine-induced temperature decrease / hypothermic response” value is on record as “antagonized”. For the same molecule, in “LD50 values in mice” (setting [8]), the median lethal dose (LD50) worked out at 126 mg/kg.
In the case of `CN(C)CCCN1c2ccccc2CCc2ccccc21` [Imipramine, reference compound], the ED50 in the data set on yohimbine hydrochloride amounted to 4.4 mg/kg; in [6], 17.7 mg/kg; in the data set with oxotremorine [3] it was 5.3 mg/kg.
As to `O=C1CCCN1CC#CCN1CCCC1` [Oxotremorine, 1-(4-pyrrolidino-2-butynyl)-2-pyrrolidinone], in the data set on oxotremorine [7] (0.6 mg./kg. oxotremorine, mouse kept at room temperature), the “decrease of body temperature” value was “about 13 ° F”. In addition, the hypothermic response result in the data set with oxotremorine [7] was “produces hypothermic responses in mice; also recorded: very pronounced hypothermia”.
Regarding `CN1CCc2cccc3c2[C@H]1Cc1ccc(O)c(O)c1-3` [apomorphine], the hypothermic response entry in the data set on oxotremorine [7] is reported as “produces hypothermic responses in mice”.
In the case of `CN1[C@@H]2CC[C@H]1C[C@@H](OC(=O)C(CO)c1ccccc1)C2` (stereo partly shown) [atropine], in the data set on oxotremorine [7], the “effect on oxotremorine-induced temperature decrease / hypothermic response” value is on record as “blocked”.
For the molecule `CNCCCN1c2ccccc2CCc2ccccc21` [desipramine], in the data set on oxotremorine [7], the “effect on oxotremorine-induced temperature decrease / hypothermic response” value was “antagonized”.
In the case of `CN1CCC[C@H]1c1cccnc1` [nicotine salicylate, reference compound], the “effect of nicotine salicylate in control mice” value in the data set with nicotine salicylate (2 mg./kg., injected) was “overstimulation”.
In the case of `O=C1C[C@@H]2OCC=C3CN4CC[C@]56c7ccccc7N1[C@H]5[C@H]2[C@H]3C[C@H]46` [strychnine sulfate, reference compound], the “lethality of strychnine sulfate in control mice” value in the data set with strychnine sulfate (3 mg./kg. intraperitoneally) is “routinely fatal to all the control mice”.
Take `COc1cc2c(cc1OC)C1CC(=O)C(CC(C)C)CN1CC2` (stereo not shown) [tetrabenazine]: the hypothermic response result in the data set on oxotremorine [7] is given as “produces hypothermic responses in mice”.
Regarding `COC(=O)[C@@H]1[C@H]2C[C@H]3c4[nH]c5ccccc5c4CCN3C[C@@H]2CC[C@@H]1O` [yohimbine hydrochloride], the “lethality of yohimbine hydrochloride alone” value in the data set with yohimbine hydrochloride (30 mg./kg. (30 mg.), mice) is recorded as “non-lethal”. This molecule came in with a median lethal dose (LD50) in the data set “in vivo” of 45 mg/kg.
